In patent US8637702B2, “Derivatives of N-hydroxybenzamide for treating HIV infections” (Italfarmaco S.p.A., priority 2009, dated 2014):
pIC50: −log10 of the molar value.

Key:
HDAC8 = target: T1, HDAC8 (Homo sapiens, UniProt Q9BY41); assay: Inhibition of histone deacetylase isoforms, HDAC8
T1 sequence (Q9BY41 1-377): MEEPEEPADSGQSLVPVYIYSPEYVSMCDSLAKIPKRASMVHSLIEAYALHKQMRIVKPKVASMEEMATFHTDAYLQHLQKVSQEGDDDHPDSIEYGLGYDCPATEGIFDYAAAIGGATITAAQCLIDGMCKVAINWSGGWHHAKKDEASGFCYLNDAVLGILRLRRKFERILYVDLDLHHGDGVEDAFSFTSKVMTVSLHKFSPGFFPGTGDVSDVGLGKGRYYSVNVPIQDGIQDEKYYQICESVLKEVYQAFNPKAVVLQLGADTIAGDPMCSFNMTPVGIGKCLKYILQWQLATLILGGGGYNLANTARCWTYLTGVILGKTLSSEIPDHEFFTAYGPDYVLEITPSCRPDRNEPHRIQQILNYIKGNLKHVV
Protocol: (§1) Recombinant human enzymes were acquired from BPS Biosciences (CA, USA). Isoforms of Class I HDAC1, 2, 3; HDAC6, 10 of Class IIb and Class IV HDAC11 were tested using the Fluor-de-Lys fluorogenic synthetic substrate (Enzo Life Sciences, Plymouth Meeting, Pa.). […] The recombinant human HDAC8 assay was performed using HDAC8 Fluorimetric Drug Discovery Kit (Enzo) according to the manufacturer instructions. Each inhibitor was dissolved in DMSO and then further diluted in an assay buffer. […] The assays were performed by pre-incubating each enzyme with the inhibitors for 15 minutes at 37° C. The reaction was started by adding the substrate at 37° C. and allowed to proceed for 60 minutes. The fluorescent signal was generated by adding 50 μL of a twice concentrated developer solution 2 (Enzo) containing trichostatin A 4 μM.

HDAC6 = target: T2, HDAC6 (Homo sapiens, UniProt Q9UBN7); assay: Inhibition of histone deacetylase isoforms, HDAC6
T2 sequence (Q9UBN7 1-1215): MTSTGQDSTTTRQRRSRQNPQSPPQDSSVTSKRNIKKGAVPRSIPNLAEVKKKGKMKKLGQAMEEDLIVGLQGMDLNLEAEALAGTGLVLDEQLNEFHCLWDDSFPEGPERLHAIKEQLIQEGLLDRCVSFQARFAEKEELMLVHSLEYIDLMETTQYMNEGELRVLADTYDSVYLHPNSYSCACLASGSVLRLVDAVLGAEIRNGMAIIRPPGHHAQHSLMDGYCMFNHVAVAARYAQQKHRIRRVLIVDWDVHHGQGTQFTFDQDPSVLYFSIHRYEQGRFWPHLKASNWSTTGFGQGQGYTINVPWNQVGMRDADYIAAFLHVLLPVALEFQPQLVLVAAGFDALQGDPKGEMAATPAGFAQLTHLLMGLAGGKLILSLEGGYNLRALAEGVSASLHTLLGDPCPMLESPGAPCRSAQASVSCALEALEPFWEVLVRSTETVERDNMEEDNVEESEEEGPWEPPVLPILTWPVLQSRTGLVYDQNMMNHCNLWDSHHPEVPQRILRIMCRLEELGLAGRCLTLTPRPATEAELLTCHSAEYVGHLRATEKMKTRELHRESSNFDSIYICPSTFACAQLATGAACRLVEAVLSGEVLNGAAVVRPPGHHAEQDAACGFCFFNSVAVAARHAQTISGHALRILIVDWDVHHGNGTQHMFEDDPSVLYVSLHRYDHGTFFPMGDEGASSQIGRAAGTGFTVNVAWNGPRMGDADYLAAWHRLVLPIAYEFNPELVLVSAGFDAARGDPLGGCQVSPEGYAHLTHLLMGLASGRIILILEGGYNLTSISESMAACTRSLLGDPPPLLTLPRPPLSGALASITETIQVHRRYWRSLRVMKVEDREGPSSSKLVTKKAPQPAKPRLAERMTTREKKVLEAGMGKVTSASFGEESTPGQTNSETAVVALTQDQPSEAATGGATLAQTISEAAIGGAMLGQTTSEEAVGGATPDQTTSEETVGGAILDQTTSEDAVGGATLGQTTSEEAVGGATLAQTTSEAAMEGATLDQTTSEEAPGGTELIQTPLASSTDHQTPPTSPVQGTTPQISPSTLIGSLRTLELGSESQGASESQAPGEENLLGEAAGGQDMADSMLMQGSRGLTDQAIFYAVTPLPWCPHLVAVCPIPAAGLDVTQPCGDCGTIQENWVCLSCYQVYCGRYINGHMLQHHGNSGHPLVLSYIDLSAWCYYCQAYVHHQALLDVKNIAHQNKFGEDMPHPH
Protocol: as §1

HDAC9 = HDAC9 (Homo sapiens, UniProt Q9UKV0); assay: Inhibition of histone deacetylase isoforms, HDAC9
Protocol: Recombinant human enzymes were acquired from BPS Biosciences (CA, USA). Isoforms of Class I HDAC1, 2, 3; HDAC6, 10 of Class IIb and Class IV HDAC11 were tested using the Fluor-de-Lys fluorogenic synthetic substrate (Enzo Life Sciences, Plymouth Meeting, Pa.). […] Each inhibitor was dissolved in DMSO and then further diluted in an assay buffer. […] The assays were performed by pre-incubating each enzyme with the inhibitors for 15 minutes at 37° C. The reaction was started by adding the substrate at 37° C. and allowed to proceed for 60 minutes. The fluorescent signal was generated by adding 50 μL of a twice concentrated developer solution 2 (Enzo) containing trichostatin A 4 μM.

HDAC7 = target: T3, HDAC7 (Homo sapiens, UniProt Q8WUI4); assay: Inhibition of histone deacetylase isoforms, HDAC7
T3 sequence (Q8WUI4 1-952): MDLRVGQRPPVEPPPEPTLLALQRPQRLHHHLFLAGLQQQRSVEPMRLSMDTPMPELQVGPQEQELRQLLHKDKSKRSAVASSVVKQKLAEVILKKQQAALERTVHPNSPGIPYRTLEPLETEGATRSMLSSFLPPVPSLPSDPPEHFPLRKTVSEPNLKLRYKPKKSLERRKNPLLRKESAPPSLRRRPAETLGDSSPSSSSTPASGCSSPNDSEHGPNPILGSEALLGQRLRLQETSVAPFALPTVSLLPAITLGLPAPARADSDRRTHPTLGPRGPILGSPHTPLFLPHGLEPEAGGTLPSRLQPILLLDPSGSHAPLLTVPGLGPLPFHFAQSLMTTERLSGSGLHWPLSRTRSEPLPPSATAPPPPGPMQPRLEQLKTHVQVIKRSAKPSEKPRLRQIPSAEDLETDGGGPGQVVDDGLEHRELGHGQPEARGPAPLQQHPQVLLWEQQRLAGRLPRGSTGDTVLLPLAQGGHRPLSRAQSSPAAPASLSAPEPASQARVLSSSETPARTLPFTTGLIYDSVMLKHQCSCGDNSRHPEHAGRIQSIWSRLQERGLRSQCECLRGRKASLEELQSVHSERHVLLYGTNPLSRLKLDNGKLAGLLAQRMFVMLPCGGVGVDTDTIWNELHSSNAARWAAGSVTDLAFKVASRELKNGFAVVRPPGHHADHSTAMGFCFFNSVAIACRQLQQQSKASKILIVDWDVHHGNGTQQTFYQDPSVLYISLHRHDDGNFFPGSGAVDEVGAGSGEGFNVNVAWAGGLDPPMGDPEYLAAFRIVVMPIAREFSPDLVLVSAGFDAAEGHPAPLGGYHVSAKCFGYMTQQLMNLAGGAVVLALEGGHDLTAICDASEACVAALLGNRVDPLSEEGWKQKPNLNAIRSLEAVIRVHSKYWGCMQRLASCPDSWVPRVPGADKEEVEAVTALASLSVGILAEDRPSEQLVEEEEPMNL
Protocol: as §1

HDAC3 = HDAC3 (Homo sapiens, UniProt O15379); assay: Inhibition of histone deacetylase isoforms, HDAC3
Sequence of HDAC3 (O15379 whole entry, canonical isoform): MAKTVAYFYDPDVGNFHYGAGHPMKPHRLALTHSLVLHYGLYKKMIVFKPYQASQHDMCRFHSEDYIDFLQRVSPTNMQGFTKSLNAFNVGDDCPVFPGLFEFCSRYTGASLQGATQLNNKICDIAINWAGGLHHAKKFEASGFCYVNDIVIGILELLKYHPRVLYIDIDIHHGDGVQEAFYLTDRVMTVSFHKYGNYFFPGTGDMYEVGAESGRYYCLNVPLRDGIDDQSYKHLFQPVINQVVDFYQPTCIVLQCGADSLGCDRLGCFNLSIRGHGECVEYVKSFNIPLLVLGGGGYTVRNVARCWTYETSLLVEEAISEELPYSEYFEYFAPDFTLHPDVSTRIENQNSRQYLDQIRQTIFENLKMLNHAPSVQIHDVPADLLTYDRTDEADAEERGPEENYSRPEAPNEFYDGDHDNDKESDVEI
Sequence of HDAC3 (Q9Y618 395-489 partner limits assumed): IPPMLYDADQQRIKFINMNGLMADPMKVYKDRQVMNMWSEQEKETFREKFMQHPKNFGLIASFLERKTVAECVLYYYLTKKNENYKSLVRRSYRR
Protocol: as §1

Sequence of HDAC9 (Q9UKV0 whole entry, canonical isoform): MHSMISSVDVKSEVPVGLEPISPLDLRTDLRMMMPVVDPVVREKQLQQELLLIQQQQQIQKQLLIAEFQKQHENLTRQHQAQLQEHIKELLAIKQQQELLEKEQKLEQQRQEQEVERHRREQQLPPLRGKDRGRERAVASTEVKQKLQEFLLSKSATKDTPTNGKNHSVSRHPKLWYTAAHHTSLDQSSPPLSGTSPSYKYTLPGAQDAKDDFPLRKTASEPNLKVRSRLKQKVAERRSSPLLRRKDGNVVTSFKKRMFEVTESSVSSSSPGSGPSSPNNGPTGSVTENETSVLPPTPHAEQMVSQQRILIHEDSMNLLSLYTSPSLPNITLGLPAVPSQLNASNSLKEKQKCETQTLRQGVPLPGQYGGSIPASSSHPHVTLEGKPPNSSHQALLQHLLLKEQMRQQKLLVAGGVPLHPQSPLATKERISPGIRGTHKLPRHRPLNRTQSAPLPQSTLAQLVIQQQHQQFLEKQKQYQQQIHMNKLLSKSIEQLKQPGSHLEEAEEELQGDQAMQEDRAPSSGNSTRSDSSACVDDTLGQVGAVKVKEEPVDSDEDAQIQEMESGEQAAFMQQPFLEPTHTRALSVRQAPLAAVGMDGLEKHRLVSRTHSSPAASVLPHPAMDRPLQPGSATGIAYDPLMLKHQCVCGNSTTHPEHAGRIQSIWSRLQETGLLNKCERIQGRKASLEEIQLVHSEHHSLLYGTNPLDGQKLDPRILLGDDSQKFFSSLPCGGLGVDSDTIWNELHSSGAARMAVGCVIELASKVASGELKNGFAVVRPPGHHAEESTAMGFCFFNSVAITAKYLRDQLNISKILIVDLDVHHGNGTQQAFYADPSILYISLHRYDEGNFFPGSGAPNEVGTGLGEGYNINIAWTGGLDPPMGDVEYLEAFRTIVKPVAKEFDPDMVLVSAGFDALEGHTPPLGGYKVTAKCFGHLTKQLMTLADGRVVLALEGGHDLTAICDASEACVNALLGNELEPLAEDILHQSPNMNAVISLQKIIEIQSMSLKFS

SMILES | pIC50 (HDAC8) | pIC50 (HDAC6) | pIC50 (HDAC9) | pIC50 (HDAC7) | pIC50 (HDAC3)
O=C(NO)c1ccc(NC(=O)[C@H](Cc2ccc3ccccc3c2)NC(=O)c2ccccc2)cc1 [Compound g, 4-(2(S)-benzoylamino-3-naphtalen-2-yl-propionylamino)-N-hydroxy-benzamide] | 6.31 | 5.44 | 5.38 | 5.69 | 6.61
O=C(NO)c1ccc(NC(=O)[C@H](Cc2ccc3ccccc3c2)NC(=O)c2ccc3c(c2)OCO3)cc1 [Compound t, benzo[1,3]dioxole-5-carboxylic acid [1(S)-(4-hydroxycarbamoyl-phenylcarbamoyl)-2-naphtalen-2-yl-ethy]-amide] | 6.79 | 6.21 | < 5.00 | 5.06 | 6.97
